In paper PMC5668434, “Modulation of telomere protection by the PI3K/AKT pathway” (Nature Communications, 2017):

Tests used:
[1] = test system: TRF1 mRNA in CHA 9-3 lung cancer cells; assay: TRF1 mRNA by qPCR; assay type: cell-based, mouse; settings: 10 μM, 24 h
PI3K-γ (p110γ) = target: T1, PI3K-γ (p110γ) (Homo sapiens, UniProt P48736); assay: PI3K isoforms biochemical assay (HTRF), PI3K-γ; settings: read-out: PI3Kγ IC50
T1 construct: purchased Invitrogen PV4787
Procedure: (§1) PI3Kα (p110α/p85α), PI3K-δ (p110δ/p85α), and PI3K-γ (p110γ) were purchased from Invitrogen (PV4789, PV 5274, and PV4787, respectively). PI3K-β (p110β/p85α) was obtained from Millipore (#14-603). The kinase activity was measured with the commercial PI3-kinase (human) HTRF™ assay available from Millipore (#33-017), following the manufacturer recommendations. The final enzyme concentration in the assay were 100 pM for PI3K-α and PI3K-δ, 500 pM for PI3K-β, and 4 nM for PI3K-γ. […] The enzyme was preincubated with the inhibitor and with 10 μM of PIP2 for 5 min. The enzymatic reaction was started by addition of ATP at 50 times the Km. The incubation was kept at 37 °C for 60 min. Stop solution and detection mix were added sequentially to the wells and plates were incubated 3 h in the dark at 25 °C. HTRF counts were measured in an EnVision reader (Perkin Elmer) using the recommended settings. Values were normalized against the control activity included for the enzyme (100% PI3 kinase activity, without compound). These values were plotted against the inhibitor concentration and were fit to a sigmoid dose-response curve by using Activity base software from IDBS.

[2] = test system: TRF1 foci in p53−/− mouse embryo fibroblasts (MEF); assay: TRF1 foci immunofluorescence in p53−/− MEFs; assay type: cell-based; settings: 10 μM, 24 h
Procedure: We then checked whether PI3Kα/AKT inhibition also leads to decreased TRF1 foci in an additional cell type to CHA-9.3 cells. Thus, we used p53 ^−/− mouse embryo fibroblasts (MEF). We treated these MEFs either with the AKT inhibitor MK-2206 or with ETP-47037 at 10 μM concentration for 24 h and analyzed TRF1 foci by immunofluorescence.
TRF1 immunofluorescence of TRF1 was performed in lung tumor-derived cell line (CHA9.3) and in MEFs[39]. A rat monoclonal antibody against mouse TRF1 developed by the Monoclonal antibody unit at CNIO was used to detect endogenous TRF1 (1:500). GFP-TRF1 fluorescence was directly measured in cells fixed in paraformaldehyde. For quantification of TRF1 foci intensity, pictures of fixed cells were automatically acquired from each well by the Opera HCS system (Perkin Elmer). Sixty images of random fields per well, with a 40× magnification lens, were taken under non-saturating conditions. At least 1 × 10^3 cells were analyzed for each well. Briefly, images were segmented using the DAPI staining to generate masks matching cell nuclei from which-TRF1 foci were analyzed.

PI3K-β (p110β/p85α) = target: T2, PI3K-β (p110β/p85α) (Homo sapiens, UniProt P42338); assay: PI3K isoforms biochemical assay (HTRF), PI3K-β; settings: read-out: PI3Kβ IC50
T2 construct: purchased Millipore #14-603
Procedure: as §1

[3] = test system: aggressive lung cancer in mice; design: method as in PMID 25971796; settings: mice with aggressive lung cancer; cited from earlier work
[4] = test system: TRF1 protein in p53−/− MEFs nuclear extracts; assay: Western blot of nuclear TRF1 in p53−/− MEFs; assay type: cell-based, mouse; settings: 10 μM
Procedure: Blots were incubated with the primary antibodies anti-TRF1 1:500 (home-made monoclonal Rat, CNIO; TRF-78, ABCAM, ab10579) and with anti-SMC1 1:2000 (Bethyl Laboratories #A300-055A) as loading control. For nuclear protein preparation, the Nuclear/Cytosol Fractionation Kit (K266-100, BioVision) was used according to the manufactures protocol.

PI3K-δ (p110δ/p85α) = target: T3, PI3K-δ (p110δ/p85α) (Homo sapiens, UniProt O00329); assay: PI3K isoforms biochemical assay (HTRF), PI3K-δ; settings: read-out: PI3Kδ IC50
T3 construct: purchased Invitrogen PV 5274
Procedure: as §1

T1 sequence (P48736 whole entry, canonical isoform): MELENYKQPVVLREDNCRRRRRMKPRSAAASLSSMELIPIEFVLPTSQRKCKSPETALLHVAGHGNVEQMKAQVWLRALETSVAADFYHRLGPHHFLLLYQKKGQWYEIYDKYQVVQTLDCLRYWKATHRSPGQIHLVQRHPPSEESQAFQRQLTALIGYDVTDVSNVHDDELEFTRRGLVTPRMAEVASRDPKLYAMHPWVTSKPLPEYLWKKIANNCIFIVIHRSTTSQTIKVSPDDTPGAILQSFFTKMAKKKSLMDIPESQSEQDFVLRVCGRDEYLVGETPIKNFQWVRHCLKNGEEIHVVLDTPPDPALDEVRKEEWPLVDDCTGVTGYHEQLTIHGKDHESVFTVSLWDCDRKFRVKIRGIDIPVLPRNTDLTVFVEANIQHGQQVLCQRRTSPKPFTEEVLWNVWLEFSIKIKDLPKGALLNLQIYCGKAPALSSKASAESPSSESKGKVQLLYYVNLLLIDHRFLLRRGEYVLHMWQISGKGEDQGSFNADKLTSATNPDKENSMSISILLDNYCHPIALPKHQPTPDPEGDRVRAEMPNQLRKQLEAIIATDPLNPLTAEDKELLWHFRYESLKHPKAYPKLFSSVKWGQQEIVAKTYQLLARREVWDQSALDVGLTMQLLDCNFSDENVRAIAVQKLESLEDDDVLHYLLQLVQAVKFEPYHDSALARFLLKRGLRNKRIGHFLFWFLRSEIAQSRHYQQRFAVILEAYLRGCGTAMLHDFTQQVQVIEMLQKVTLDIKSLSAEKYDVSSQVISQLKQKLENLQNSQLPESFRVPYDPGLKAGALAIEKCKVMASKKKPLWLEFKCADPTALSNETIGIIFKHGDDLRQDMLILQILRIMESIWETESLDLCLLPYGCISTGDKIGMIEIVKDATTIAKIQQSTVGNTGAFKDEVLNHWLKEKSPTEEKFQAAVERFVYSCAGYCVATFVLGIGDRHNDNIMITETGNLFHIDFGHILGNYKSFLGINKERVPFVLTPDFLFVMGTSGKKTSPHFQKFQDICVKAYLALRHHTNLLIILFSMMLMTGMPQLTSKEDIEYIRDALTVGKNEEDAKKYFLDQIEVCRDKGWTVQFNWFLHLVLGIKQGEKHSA
T2 sequence (P42338 whole entry, canonical isoform): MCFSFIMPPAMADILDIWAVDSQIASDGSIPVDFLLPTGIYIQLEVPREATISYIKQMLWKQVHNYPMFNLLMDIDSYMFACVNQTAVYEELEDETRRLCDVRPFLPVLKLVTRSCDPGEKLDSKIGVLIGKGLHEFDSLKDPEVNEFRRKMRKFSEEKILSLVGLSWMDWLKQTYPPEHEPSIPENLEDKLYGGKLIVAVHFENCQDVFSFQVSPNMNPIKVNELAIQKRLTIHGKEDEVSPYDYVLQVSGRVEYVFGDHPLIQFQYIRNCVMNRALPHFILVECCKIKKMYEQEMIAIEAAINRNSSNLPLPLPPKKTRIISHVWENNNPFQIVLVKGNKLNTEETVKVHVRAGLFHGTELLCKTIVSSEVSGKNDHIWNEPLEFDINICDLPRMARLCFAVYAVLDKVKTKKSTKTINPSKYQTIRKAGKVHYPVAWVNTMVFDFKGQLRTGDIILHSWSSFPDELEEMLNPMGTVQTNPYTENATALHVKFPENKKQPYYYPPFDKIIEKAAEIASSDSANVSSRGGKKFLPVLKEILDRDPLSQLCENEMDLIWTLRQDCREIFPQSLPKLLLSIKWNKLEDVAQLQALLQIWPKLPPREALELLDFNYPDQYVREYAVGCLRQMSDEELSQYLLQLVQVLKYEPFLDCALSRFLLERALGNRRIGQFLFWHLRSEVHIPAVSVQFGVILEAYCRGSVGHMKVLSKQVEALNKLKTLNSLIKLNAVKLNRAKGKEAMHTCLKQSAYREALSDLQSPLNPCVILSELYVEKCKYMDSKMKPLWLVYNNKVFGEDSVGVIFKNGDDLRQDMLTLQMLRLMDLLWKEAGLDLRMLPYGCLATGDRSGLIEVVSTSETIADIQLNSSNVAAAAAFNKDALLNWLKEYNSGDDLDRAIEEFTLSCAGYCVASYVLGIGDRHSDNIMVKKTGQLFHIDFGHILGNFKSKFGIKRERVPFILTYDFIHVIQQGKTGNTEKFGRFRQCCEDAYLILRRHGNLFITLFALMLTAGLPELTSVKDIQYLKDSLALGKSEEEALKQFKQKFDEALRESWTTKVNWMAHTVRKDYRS
T2 sequence (P27986 whole entry partner, canonical isoform): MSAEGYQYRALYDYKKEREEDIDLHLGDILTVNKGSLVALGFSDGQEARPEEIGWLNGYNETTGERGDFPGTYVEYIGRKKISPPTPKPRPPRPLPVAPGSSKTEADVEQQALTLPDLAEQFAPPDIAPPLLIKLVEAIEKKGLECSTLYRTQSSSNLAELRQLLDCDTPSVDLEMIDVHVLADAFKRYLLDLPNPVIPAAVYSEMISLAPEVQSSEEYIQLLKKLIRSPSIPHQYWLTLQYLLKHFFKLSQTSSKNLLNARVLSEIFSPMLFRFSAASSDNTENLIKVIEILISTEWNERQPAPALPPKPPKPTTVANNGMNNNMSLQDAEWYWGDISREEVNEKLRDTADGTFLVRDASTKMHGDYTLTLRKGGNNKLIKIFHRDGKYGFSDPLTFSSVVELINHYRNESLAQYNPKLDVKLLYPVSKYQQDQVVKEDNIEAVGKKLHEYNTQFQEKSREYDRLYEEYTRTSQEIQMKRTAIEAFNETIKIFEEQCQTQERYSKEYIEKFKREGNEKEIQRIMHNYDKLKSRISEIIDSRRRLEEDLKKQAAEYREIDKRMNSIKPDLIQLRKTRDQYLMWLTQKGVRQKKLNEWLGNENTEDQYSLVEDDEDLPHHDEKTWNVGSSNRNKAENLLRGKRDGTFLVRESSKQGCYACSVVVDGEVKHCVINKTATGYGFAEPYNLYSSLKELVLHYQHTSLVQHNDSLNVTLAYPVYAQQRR
T3 sequence (O00329 whole entry, canonical isoform): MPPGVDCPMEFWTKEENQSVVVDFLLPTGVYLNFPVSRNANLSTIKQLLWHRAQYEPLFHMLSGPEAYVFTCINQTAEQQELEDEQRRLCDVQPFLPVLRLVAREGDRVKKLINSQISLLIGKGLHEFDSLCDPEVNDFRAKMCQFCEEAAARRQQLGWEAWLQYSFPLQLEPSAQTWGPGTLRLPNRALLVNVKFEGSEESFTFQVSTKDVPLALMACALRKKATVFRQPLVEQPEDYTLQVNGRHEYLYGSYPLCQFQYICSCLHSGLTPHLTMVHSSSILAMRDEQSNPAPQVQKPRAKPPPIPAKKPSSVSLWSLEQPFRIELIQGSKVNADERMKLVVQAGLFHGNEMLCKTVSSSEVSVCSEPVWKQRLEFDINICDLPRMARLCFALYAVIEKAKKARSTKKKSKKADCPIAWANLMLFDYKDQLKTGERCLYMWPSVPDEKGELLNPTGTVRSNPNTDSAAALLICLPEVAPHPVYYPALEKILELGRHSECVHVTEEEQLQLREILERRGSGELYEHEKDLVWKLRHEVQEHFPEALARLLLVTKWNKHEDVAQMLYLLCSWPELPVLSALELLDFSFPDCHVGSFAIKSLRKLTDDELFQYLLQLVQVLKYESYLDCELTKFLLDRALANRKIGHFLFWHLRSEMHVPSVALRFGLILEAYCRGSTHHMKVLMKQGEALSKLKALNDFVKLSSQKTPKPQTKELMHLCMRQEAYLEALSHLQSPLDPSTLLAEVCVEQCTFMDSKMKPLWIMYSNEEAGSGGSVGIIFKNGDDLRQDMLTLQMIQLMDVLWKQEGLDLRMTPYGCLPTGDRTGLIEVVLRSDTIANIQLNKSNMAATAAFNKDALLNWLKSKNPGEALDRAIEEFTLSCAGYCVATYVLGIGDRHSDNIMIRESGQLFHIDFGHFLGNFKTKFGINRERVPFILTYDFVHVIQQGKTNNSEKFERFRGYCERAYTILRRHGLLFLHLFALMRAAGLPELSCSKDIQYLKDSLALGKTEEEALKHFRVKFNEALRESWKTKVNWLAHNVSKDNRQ
T3 sequence (P27986 whole entry partner, canonical isoform): as the sequence (P27986 whole entry partner, canonical isoform) above

CS(=O)(=O)N1CCN(Cc2cc3c(N4CCOCC4)nc(-c4cnc(N)nc4)cn3n2)CC1 [ETP-47037]
TRF1 mRNA levels [1]: None of the inhibitors significantly affected
IC50 (PI3K-γ (p110γ)): 49.1 nM
Reduction in TRF1 foci intensity [2]: 34%
IC50 (PI3K-β (p110β/p85α)): 49.2 nM
Telomere TRF1 foci in vivo [3]: significantly decreased
Telomeric DNA damage in vivo [3]: induced telomeric DNA damage
Tumor growth as compared to non-treated mice [3]: blocked tumor growth
Total nuclear TRF1 levels compared to DMSO [4]: decreased
IC50 (PI3K-δ (p110δ/p85α)): 7.13 nM
